Experimental data: the kinase profiling compilation of Christmann-Franck et al. (2016)

Assays:
[1] = biological target: MYO3A (human) (UniProt Q8NEV4); assay: KINOMEscan competition binding; settings: compound 10.0 µM
[2] = biological target: PDGFRB (human) (UniProt P09619); assay: KINOMEscan competition binding; settings: compound 10.0 µM
[3] = biological target: FGFR2 (human) (UniProt P21802); assay: KINOMEscan competition binding; settings: compound 10.0 µM
[4] = biological target: FGFR1 (human) (UniProt P11362); assay: KINOMEscan competition binding; settings: compound 10.0 µM
[5] = biological target: MST4 (human) (UniProt Q9P289); assay: KINOMEscan competition binding; settings: compound 10.0 µM
[6] = biological target: CDC2L2 (human) (UniProt Q9UQ88); assay: KINOMEscan competition binding; settings: compound 10.0 µM
[7] = biological target: SIK2 (human) (UniProt Q9H0K1); assay: KINOMEscan competition binding; settings: compound 10.0 µM
[8] = biological target: MAP3K4 (human) (UniProt Q9Y6R4); assay: KINOMEscan competition binding; settings: compound 10.0 µM
[9] = test system: BRAF (human), P15056 [V600E]; assay: KINOMEscan competition binding; settings: compound 10.0 µM
[10] = biological target: TEC (human) (UniProt P42680); assay: KINOMEscan competition binding; settings: compound 10.0 µM
[11] = biological target: TTK (human) (UniProt P33981); assay: KINOMEscan competition binding; settings: compound 10.0 µM
[12] = biological target: INSR (human) (UniProt P06213); assay: KINOMEscan competition binding; settings: compound 10.0 µM
[13] = biological target: HIPK1 (human) (UniProt Q86Z02); assay: KINOMEscan competition binding; settings: compound 10.0 µM
[14] = biological target: CDK15 (human) (UniProt Q96Q40); assay: KINOMEscan competition binding; settings: compound 10.0 µM
[15] = biological target: MAP3K9 (human) (UniProt P80192); assay: KINOMEscan competition binding; settings: compound 10.0 µM
[16] = biological target: HUNK (human) (UniProt P57058); assay: KINOMEscan competition binding; settings: compound 10.0 µM
[17] = biological target: MARK1 (human) (UniProt Q9P0L2); assay: KINOMEscan competition binding; settings: compound 10.0 µM
[18] = biological target: NIM1 (human) (UniProt Q8IY84); assay: KINOMEscan competition binding; settings: compound 10.0 µM
[19] = biological target: TNK1 (human) (UniProt Q13470); assay: KINOMEscan competition binding; settings: compound 10.0 µM
[20] = biological target: STK24 (human) (UniProt Q9Y6E0); assay: KINOMEscan competition binding; settings: compound 10.0 µM
[21] = biological target: DYRK1A (human) (UniProt Q13627); assay: KINOMEscan competition binding; settings: compound 10.0 µM
[22] = biological target: JAK1 JH1 catalytic (human) (UniProt P23458); assay: KINOMEscan competition binding; settings: compound 10.0 µM
[23] = biological target: MAP3K6 (human) (UniProt O95382); assay: KINOMEscan competition binding; settings: compound 10.0 µM
[24] = biological target: STK33 (human) (UniProt Q9BYT3); assay: KINOMEscan competition binding; settings: compound 10.0 µM
[25] = biological target: RIOK2 (human) (UniProt Q9BVS4); assay: KINOMEscan competition binding; settings: compound 10.0 µM
[26] = biological target: MKNK2 (human) (UniProt Q9HBH9); assay: KINOMEscan competition binding; settings: compound 10.0 µM
[27] = test system: RET (human), P07949 [V804L]; assay: KINOMEscan competition binding; settings: compound 10.0 µM
[28] = biological target: CSNK1G2 (human) (UniProt P78368); assay: KINOMEscan competition binding; settings: compound 10.0 µM
[29] = biological target: MAP4K1 (human) (UniProt Q92918); assay: KINOMEscan competition binding; settings: compound 10.0 µM
[30] = biological target: GSK3A (human) (UniProt P49840); assay: KINOMEscan competition binding; settings: compound 10.0 µM
[31] = biological target: ABL2 (human) (UniProt P42684); assay: KINOMEscan competition binding; settings: compound 10.0 µM
[32] = biological target: PRKG1 (human) (UniProt Q13976); assay: KINOMEscan competition binding; settings: compound 10.0 µM
[33] = biological target: TNIK (human) (UniProt Q9UKE5); assay: KINOMEscan competition binding; settings: compound 10.0 µM
[34] = biological target: EGFR (human) (UniProt P00533); assay: KINOMEscan competition binding; settings: compound 10.0 µM
[35] = biological target: ICK (human) (UniProt Q9UPZ9); assay: KINOMEscan competition binding; settings: compound 10.0 µM
[36] = biological target: SLK (human) (UniProt Q9H2G2); assay: KINOMEscan competition binding; settings: compound 10.0 µM
[37] = biological target: RIPK1 (human) (UniProt Q13546); assay: KINOMEscan competition binding; settings: compound 10.0 µM
[38] = biological target: MAP3K11 (human) (UniProt Q16584); assay: KINOMEscan competition binding; settings: compound 10.0 µM
[39] = test system: FGFR3 (human), P22607 [G697C]; assay: KINOMEscan competition binding; settings: compound 10.0 µM
[40] = biological target: PIK3C2A (human) (UniProt O00443); assay: SelectScreen, TR FRET
[41] = biological target: PRKDC (human) (UniProt P78527); assay: SelectScreen, TR FRET
[42] = biological target: PI4KA (human) (UniProt P42356); assay: SelectScreen, TR FRET

MAP3K6 (human), sequence (O95382 whole entry, looked up): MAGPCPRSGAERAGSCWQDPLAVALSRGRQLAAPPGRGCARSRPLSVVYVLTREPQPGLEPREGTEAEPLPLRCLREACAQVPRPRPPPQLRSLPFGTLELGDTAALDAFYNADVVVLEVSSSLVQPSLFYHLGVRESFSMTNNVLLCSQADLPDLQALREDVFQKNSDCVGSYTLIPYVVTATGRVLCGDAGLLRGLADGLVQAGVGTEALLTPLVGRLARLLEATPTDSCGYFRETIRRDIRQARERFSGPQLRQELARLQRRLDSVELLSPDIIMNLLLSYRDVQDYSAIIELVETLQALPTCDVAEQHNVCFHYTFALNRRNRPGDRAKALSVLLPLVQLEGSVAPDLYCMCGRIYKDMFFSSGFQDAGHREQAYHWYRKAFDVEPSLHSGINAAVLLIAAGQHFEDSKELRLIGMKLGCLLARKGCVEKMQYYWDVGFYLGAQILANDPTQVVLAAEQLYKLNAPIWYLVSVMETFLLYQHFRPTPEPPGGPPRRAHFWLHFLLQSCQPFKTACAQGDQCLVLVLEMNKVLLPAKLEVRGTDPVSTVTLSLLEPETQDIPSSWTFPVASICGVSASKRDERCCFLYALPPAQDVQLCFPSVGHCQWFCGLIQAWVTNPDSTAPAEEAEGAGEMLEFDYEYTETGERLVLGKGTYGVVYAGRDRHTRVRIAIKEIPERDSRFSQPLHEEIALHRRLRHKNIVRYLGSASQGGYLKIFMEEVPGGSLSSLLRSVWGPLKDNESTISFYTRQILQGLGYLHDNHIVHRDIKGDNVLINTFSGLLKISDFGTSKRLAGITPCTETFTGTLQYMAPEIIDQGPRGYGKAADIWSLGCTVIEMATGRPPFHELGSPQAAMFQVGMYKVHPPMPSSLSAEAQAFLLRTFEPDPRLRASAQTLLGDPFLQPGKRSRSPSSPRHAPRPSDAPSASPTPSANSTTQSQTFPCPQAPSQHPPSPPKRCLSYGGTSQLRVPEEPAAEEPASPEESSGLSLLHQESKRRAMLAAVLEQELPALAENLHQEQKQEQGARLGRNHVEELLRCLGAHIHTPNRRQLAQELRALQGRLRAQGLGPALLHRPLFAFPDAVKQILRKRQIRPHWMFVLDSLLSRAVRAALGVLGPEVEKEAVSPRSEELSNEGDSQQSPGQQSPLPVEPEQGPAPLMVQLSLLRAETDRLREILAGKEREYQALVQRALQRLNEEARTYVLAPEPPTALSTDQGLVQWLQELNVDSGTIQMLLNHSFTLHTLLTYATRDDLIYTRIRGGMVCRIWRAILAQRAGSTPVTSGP
STK33 (human), sequence (Q9BYT3 whole entry, looked up): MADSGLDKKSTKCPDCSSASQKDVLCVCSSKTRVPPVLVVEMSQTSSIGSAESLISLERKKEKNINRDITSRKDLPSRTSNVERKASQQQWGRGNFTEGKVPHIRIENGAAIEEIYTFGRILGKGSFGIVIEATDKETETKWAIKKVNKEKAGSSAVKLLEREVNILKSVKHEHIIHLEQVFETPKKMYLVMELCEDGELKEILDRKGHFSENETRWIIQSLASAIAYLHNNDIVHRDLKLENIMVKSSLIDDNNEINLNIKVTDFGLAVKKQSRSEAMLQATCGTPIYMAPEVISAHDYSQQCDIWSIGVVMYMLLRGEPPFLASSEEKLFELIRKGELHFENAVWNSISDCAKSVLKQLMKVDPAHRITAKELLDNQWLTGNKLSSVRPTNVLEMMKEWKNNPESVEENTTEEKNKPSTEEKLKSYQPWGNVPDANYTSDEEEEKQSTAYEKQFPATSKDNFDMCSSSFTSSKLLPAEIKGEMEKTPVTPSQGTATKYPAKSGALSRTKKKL
FGFR2 (human), sequence (P21802 whole entry, looked up): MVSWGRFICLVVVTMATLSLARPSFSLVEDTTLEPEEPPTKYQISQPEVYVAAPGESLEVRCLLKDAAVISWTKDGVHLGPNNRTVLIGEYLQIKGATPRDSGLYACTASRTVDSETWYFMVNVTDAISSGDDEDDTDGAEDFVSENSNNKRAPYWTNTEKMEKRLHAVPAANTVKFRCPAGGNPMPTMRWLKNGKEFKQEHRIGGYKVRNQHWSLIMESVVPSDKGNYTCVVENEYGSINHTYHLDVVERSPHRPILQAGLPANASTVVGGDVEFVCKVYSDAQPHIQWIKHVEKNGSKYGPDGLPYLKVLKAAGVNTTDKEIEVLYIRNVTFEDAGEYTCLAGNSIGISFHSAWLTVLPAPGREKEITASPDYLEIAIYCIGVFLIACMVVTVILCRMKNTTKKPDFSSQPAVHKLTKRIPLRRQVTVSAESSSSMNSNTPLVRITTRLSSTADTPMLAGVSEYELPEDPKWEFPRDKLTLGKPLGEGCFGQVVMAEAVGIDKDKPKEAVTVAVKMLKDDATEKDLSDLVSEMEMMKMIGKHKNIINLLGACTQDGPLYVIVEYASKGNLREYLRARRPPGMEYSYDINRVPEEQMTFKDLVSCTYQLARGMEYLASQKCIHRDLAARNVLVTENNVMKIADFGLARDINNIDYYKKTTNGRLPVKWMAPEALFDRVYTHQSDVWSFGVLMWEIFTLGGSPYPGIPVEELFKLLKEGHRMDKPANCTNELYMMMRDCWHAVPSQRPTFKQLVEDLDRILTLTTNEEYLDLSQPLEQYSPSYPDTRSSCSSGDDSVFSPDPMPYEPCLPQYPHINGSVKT
PRKG1 (human), sequence (Q13976 whole entry, looked up): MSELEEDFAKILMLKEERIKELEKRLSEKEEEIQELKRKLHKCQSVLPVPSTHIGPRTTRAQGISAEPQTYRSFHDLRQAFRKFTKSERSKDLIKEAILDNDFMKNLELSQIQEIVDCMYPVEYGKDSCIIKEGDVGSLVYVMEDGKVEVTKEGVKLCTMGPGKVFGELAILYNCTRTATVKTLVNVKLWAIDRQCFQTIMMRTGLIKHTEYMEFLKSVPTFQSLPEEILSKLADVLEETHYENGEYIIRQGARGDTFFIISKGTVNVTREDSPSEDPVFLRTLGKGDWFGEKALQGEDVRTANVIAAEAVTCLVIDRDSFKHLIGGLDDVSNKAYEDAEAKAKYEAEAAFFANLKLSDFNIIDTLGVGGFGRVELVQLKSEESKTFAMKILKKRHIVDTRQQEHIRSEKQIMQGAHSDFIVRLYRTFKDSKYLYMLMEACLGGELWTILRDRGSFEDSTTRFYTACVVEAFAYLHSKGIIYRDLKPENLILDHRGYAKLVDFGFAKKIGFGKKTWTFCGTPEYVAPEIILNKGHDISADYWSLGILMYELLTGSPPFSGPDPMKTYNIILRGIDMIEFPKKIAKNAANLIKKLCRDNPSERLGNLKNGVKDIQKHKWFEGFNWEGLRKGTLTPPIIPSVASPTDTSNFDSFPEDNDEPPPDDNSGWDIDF
RIOK2 (human), sequence (Q9BVS4 whole entry, looked up): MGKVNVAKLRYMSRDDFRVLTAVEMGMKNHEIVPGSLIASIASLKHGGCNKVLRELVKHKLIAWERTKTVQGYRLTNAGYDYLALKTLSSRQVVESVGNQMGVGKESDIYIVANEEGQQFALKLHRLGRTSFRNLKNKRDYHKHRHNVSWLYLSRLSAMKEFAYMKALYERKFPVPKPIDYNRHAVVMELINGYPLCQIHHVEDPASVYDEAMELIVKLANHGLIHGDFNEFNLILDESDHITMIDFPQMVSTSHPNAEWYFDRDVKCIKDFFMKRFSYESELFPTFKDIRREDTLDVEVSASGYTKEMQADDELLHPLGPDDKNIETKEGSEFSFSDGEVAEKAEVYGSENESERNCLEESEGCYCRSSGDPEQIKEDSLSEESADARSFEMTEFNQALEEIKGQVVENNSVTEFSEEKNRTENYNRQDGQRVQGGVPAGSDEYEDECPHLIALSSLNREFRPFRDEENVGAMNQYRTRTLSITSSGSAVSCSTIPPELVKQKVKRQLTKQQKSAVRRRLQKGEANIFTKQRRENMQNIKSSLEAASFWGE
HUNK (human), sequence (P57058 whole entry, looked up): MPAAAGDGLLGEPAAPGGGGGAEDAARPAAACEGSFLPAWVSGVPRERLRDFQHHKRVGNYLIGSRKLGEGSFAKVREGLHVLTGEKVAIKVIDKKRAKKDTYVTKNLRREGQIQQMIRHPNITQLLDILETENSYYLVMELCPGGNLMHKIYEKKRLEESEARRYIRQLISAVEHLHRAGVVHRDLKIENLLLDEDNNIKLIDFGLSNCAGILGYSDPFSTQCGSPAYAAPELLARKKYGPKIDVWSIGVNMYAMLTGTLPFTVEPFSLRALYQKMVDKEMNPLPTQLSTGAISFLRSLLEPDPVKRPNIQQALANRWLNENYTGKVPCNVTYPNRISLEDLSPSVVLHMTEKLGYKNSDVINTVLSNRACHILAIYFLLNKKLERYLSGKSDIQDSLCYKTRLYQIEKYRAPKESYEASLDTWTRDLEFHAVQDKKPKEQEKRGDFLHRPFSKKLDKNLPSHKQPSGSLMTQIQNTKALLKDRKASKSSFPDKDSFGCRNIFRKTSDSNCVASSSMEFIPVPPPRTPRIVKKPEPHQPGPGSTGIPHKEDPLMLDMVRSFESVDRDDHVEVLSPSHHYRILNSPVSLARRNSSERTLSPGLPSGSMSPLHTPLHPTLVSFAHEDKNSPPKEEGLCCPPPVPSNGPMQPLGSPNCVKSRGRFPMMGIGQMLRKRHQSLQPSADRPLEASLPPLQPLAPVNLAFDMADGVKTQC
MKNK2 (human), sequence (Q9HBH9 whole entry, looked up): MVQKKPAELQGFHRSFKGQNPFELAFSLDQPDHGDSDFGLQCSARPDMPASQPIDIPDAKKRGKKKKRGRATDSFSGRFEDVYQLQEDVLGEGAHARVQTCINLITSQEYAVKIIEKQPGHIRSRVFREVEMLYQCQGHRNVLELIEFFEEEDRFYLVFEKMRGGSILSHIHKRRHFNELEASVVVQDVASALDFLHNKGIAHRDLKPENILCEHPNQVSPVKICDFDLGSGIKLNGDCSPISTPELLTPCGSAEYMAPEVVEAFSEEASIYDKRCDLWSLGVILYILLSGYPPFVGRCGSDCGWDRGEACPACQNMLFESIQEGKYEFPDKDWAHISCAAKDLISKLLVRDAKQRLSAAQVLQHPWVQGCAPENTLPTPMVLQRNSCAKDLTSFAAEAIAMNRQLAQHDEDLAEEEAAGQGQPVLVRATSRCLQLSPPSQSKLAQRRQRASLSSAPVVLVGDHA

Cc1cc([C@@H](C)Nc2ccccc2C(=O)O)c2nc(N3CCOCC3)cc(=O)n2c1
kinase still bound, per cent of control [1]: 100% | kinase still bound, per cent of control [2]: 58% | kinase still bound, per cent of control [3]: 100% | kinase still bound, per cent of control [4]: 97% | kinase still bound, per cent of control [5]: 100% | kinase still bound, per cent of control [6]: 100% | kinase still bound, per cent of control [7]: 90% | kinase still bound, per cent of control [8]: 100% | kinase still bound, per cent of control [9]: 80% | kinase still bound, per cent of control [10]: 91% | kinase still bound, per cent of control [11]: 88% | kinase still bound, per cent of control [12]: 79% | kinase still bound, per cent of control [13]: 87% | kinase still bound, per cent of control [14]: 100% | kinase still bound, per cent of control [15]: 100% | kinase still bound, per cent of control [16]: 94% | kinase still bound, per cent of control [17]: 90% | kinase still bound, per cent of control [18]: 100% | kinase still bound, per cent of control [19]: 91% | kinase still bound, per cent of control [20]: 85% | kinase still bound, per cent of control [21]: 99% | kinase still bound, per cent of control [22]: 70% | kinase still bound, per cent of control [23]: 94% | kinase still bound, per cent of control [24]: 100% | kinase still bound, per cent of control [25]: 35% | kinase still bound, per cent of control [26]: 100% | kinase still bound, per cent of control [27]: 100% | kinase still bound, per cent of control [28]: 100% | kinase still bound, per cent of control [29]: 90% | kinase still bound, per cent of control [30]: 100% | kinase still bound, per cent of control [31]: 100% | kinase still bound, per cent of control [32]: 79% | kinase still bound, per cent of control [33]: 97% | kinase still bound, per cent of control [34]: 100% | kinase still bound, per cent of control [35]: 100% | kinase still bound, per cent of control [36]: 85% | kinase still bound, per cent of control [37]: 100% | kinase still bound, per cent of control [38]: 95% | kinase still bound, per cent of control [39]: 100% | IC50 [40]: > 1000 nM | IC50 [41]: 53.7 nM | IC50 [42]: 8.83 µM
